Laboratory results reported in ChEMBL document CHEMBL1140148, “Structure-activity studies on a series of a 2-aminopyrimidine-containing histamine H4 receptor ligands” (J Med Chem, 2008).

Experiments:
[1] = target: Histamine H4 receptor (Rattus norvegicus) (UniProt Q91ZY1); test: Agonist activity at rat histamine H4 receptor expressed in HEK293 cells coexpressing Gqi5 protein assessed as calcium flux by FLIPR assay relative to histamine; assay type: functional, cell-based
[2] = target: Histamine H4 receptor (Rattus norvegicus, UniProt Q91ZY1); test: Agonist activity at rat histamine H4 receptor expressed in HEK293 cells coexpressing Gqi5 protein assessed as calcium flux by FLIPR assay; assay type: functional, cell-based
Sequence of Histamine H4 receptor (Rattus norvegicus, UniProt Q91ZY1) (Q91ZY1 whole entry): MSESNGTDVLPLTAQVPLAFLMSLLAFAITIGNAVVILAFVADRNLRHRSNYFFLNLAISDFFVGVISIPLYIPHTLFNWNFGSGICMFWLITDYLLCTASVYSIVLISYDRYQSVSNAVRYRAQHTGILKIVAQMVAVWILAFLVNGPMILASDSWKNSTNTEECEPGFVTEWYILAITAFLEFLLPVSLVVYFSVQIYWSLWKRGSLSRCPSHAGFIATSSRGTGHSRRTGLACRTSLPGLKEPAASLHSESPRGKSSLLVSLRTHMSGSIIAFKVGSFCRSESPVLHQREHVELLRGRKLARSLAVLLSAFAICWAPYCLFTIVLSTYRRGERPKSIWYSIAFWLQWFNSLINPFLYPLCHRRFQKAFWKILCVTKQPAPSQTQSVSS

[3] = target: T1, Histamine H4 receptor (Homo sapiens, UniProt Q9H3N8); details: HEK293
[4] = target: T1, Histamine H4 receptor; test: Agonist activity at human histamine H4 receptor expressed in HEK293 cells coexpressing Gqi5 protein assessed as calcium flux by FLIPR assay; assay type: functional, cell-based
[5] = target: T1, Histamine H4 receptor; test: Agonist activity at human histamine H4 receptor expressed in HEK293 cells coexpressing Gqi5 protein assessed as calcium flux by FLIPR assay relative to histamine; assay type: functional, cell-based
[6] = target: Histamine H4 receptor (Rattus norvegicus) (UniProt Q91ZY1); details: HEK293

Sequence of Histamine H4 receptor (Rattus norvegicus) (Q91ZY1 whole entry): as above

Compound	Efficacy [1] [%]	EC50 [2] [nM]	pKb [3]	EC50 [4] [nM]	Efficacy [5] [%]	pKb [6]
CN(C)CCN(C)c1cc(C(C)(C)C)nc(N)n1	55	1120	5.71	–	–	–
CN1CCN(c2cc(I)nc(N)n2)CC1	67	2040	6.33	–	–	–
CN1CCN(c2cc(O)nc(N)n2)CC1	92	1480	4.44	–	–	–
CN1CCC(c2cc(C(C)(C)C)nc(N)n2)CC1	55	3630	5.87	–	–	–
CN1CCN(c2cc(C(C)(C)C)nc(O)n2)CC1	35	22900	4.39	–	–	–
CC1CCN(c2cc(C(C)(C)C)nc(N)n2)CC1	64	23400	5.2	–	–	–
CN1CCN(c2cc(N(C)C)nc(N)n2)CC1	59	3020	6.85	–	–	–
CN1CCN(c2cc(N)nc(N)n2)CC1	71	219	6.37	–	–	–
Cc1cc(N2CCN(C)CC2)nc(N)n1	77	363	7.2	–	–	–
CN1CCN(c2cc(C(C)(C)C)ncn2)CC1	79	933	7.07	–	–	–
CCN(CC)c1cc(N2CCN(C)CC2)nc(N)n1	90	355	7.55	–	–	–
CN1CCN(c2cc(N)nc(-c3ccc(C#N)cc3)c2)CC1	84	1860	6.86	–	–	–
COc1nc(N2CCN(C)CC2)cc(C(C)(C)C)n1	90	4680	–	1200	43	–
Cc1cnc(N)nc1N1CCN(C)CC1	81	66.1	7.07	–	–	–
CCN1CCN(c2cc(C(C)(C)C)nc(N)n2)CC1	55	245	7.86	–	–	–
CN1CCN(c2cc(C(C)(C)C)nc(Cl)n2)CC1	75	8710	–	4900	42	–
CN1CCN(c2nc(N)ncc2-c2ccccc2)CC1	72	8320	5.32	–	–	–
COc1cc(N2CCN(C)CC2)nc(N)n1	55	10500	5.53	–	–	–
CN1CCN(c2ccnc(N)n2)CC1	87	115	–	43.7	42	–

Compound	Efficacy [1] [%]	EC50 [2] [nM]	pKb [3]	EC50 [4] [nM]	Efficacy [5] [%]	pKb [6]
CNc1nc(N2CCN(C)CC2)cc(C(C)(C)C)n1	46	5130	6.08	–	–	–
CN(C)CCN1CCN(c2cc(C(C)(C)C)nc(N)n2)CC1	66	2400	6.44	–	–	–
CN1CCN(c2nc(N)cc(C(C)(C)C)n2)CC1	82	7940	5.82	–	–	–
CC(C)(C)c1cc(N2CCNCC2)nc(-n2cccc2)n1	84	2290	6.75	–	–	–
CN1CCN(c2cc(C34CC5CC(CC(C5)C3)C4)nc(N)n2)CC1	61	316	7.59	–	–	–
CN1CCN(c2cc(N)nc(C(C)(C)C)n2)CC1	50	4680	6.28	–	–	–
CN1CCN(c2nc(N)nc(C(C)(C)C)n2)CC1	70	251	7.04	–	–	–
CN1CCN(c2cc(C(C)(C)C)nc(N(C)C)n2)CC1	88	18200	–	11500	100	–
CN1CCN(c2nc(N)ncc2N)CC1	88	42.7	–	33.9	38	–
CN1CCN(c2cc(Cl)nc(N)n2)CC1	65	17000	4.75	–	–	–
COc1c(-c2ccc(C#N)cc2)nc(N)nc1N1CCN(C)CC1	51	5130	6.04	–	–	–
CN1CCN(c2cc(C(C)(C)C)nc(N)n2)CC1	64	67.6	8.35	–	–	–
CN(C)CCCN(C)c1cc(C(C)(C)C)nc(N)n1	40	9770	5.13	–	–	–
Cc1c(-c2ccc(C#N)cc2)nc(N)nc1N1CCN(C)CC1	63	58.9	7.36	–	–	–
COc1cnc(N)nc1N1CCN(C)CC1	65	631	6.9	–	–	–
CN(C)CCOc1cc(C(C)(C)C)nc(N)n1	67	302	7.02	–	–	–
CNc1cc(N2CCN(C)CC2)nc(N)n1	93	490	8.28	–	–	–
CN(C)CCNc1cc(C(C)(C)C)nc(N)n1	39	1780	6.91	–	–	–

More lines, now with the values ahead:

Efficacy [1] [%]	EC50 [2] [nM]	pKb [3]	EC50 [4] [nM]	Efficacy [5] [%]	pKb [6]	Compound
69	102	8.12	–	–	–	COc1cccc(-c2cc(N3CCN(C)CC3)nc(N)n2)c1
–	490	–	64.6	56	–	CN1CCN(c2cc(NCc3ccccc3)nc(N)n2)CC1
–	–	6.96	–	–	6.1	CN1CCN(c2cc(N(C)c3ccccc3)nc(N)n2)CC1
72	93.3	–	26.9	32	–	COc1ncccc1-c1cc(N2CCN(C)CC2)nc(N)n1
53	3240	5.91	–	–	–	COc1ncc(-c2cc(N3CCN(C)CC3)nc(N)n2)cn1
–	–	5.53	–	–	4.54	N#Cc1ccc(-c2cc(N3CCN(CC4CC4)CC3)nc(N)n2)cc1
78	219	7.31	–	–	–	CN1CCN(c2cc(-c3cnn(C)c3)nc(N)n2)CC1
68	8910	5.99	–	–	–	CN1CCN(c2cc(Sc3ccccc3)nc(N)n2)CC1
53	1820	8.38	–	–	–	CN1CCN(c2cc(-c3cn[nH]c3)nc(N)n2)CC1
33	14100	–	3890	27	–	CN1CCN(c2cc(-n3ccccc3=O)nc(N)n2)CC1
68	1350	6.84	–	–	–	CN1CCN(c2cc(N3CCN(C)CC3)nc(N)n2)CC1
81	195	6.81	–	–	–	COc1cccc(OC)c1-c1cc(N2CCN(C)CC2)nc(N)n1
77	389	–	16.2	41	–	CN1CCN(c2cc(-c3c[nH]cn3)nc(N)n2)CC1
76	234	7.39	–	–	–	COc1ccncc1-c1cc(N2CCN(C)CC2)nc(N)n1
68	43.7	8.86	–	–	–	COc1ccccc1-c1cc(N2CCN(C)CC2)nc(N)n1
59	42.7	8.62	–	–	–	Cc1cccc(-c2cc(N3CCN(C)CC3)nc(N)n2)c1
91	102	8.05	–	–	–	CN1CCN(c2cc(-c3cn(C)cn3)nc(N)n2)CC1
71	115	8.08	–	–	–	COc1ccc(-c2cc(N3CCN(C)CC3)nc(N)n2)cc1
58	275	7.83	–	–	–	CN1CCN(c2cc(-c3ccc(I)cc3)nc(N)n2)CC1
63	229	7.38	–	–	–	CN1CCN(c2cc(-c3ccncc3)nc(N)n2)CC1

Efficacy [1] [%]	EC50 [2] [nM]	pKb [3]	EC50 [4] [nM]	Efficacy [5] [%]	pKb [6]	Compound
81	117	8.18	–	–	–	CN1CCN(c2cc(Nc3ccccc3)nc(N)n2)CC1
70	209	7.3	–	–	–	CN1CCN(c2cc(-c3cccnc3)nc(N)n2)CC1
–	39.8	8.39	–	–	–	CN1CCN(c2cc(-c3ccccc3)nc(N)n2)CC1
82	15.5	8.27	–	–	–	CN1CCN(c2cc(-c3ccc(F)nc3F)nc(N)n2)CC1
81	56.2	8.06	–	–	–	Cc1ccc(-c2cc(N3CCN(C)CC3)nc(N)n2)cc1
74	37.2	8.32	–	–	–	CN1CCN(c2cc(-c3ccc(Cl)cc3)nc(N)n2)CC1
87	339	7.16	–	–	–	CN1CCN(c2cc(N3CCOCC3)nc(N)n2)CC1
79	69.2	8.41	–	–	–	CN1CCN(c2cc(N3CCCC3)nc(N)n2)CC1
50	31.6	8.24	–	–	–	CN1CCN(c2cc(-c3cccc(Cl)c3)nc(N)n2)CC1
27	12300	5.38	–	–	–	CN1CCN(c2cc(N3CCNC3=O)nc(N)n2)CC1
73	46.8	8.05	–	–	–	CN1CCN(c2cc(N3CCCCC3)nc(N)n2)CC1
41	174	7.02	–	–	–	CN1CCN(c2cc(-c3ccc4ccccc4c3)nc(N)n2)CC1
61	7940	5.84	–	–	–	CN1CCN(c2cc(-c3cncnc3)nc(N)n2)CC1
73	1200	6.75	–	–	–	CN1CCN(c2cc(-c3ccccc3C#N)nc(N)n2)CC1
62	3630	5.76	–	–	–	CN1CCN(c2cc(N3CCC(N(C)C)C3)nc(N)n2)CC1 (centres undefined)
48	234	8.06	–	–	–	CN1CCN(c2cc(-c3cccc(C#N)c3)nc(N)n2)CC1
61	891	8.27	–	–	–	CN1CCN(c2cc(-c3cccc(I)c3)nc(N)n2)CC1
60	178	8.07	–	–	–	Cc1ccccc1-c1cc(N2CCN(C)CC2)nc(N)n1
56	7940	–	2510	31	–	CN1CCN(c2cc(-n3ccnc3)nc(N)n2)CC1
